Measured values published in patent US20250114460A1, “NOVEL PLK1 DEGRADATION INDUCING COMPOUND” (UPPTHERA, INC., priority 2021, published 2025).

Assays:
NCI-H526 cell line = test: Cell viability assay for H526 cell (EZ-Cytox); format: cell-based; settings: Homo sapiens, NCI-H526, 120 h; H526 cells, 5 days, 3000 nM to 0.46 nM
Description: (1) Culture of NCI-H526 Cell Line
(2) Treatment of Compounds of the Present Invention and Method of Cell Viability Assay
After treating the compound to each well to make the total volume of 200 μL, it was cultured in a CO2 incubator (Thermo Fisher Science, Cat. No. 4111) for 5 days.
The absorbance of the completely cultured sample was measured by setting the wavelength of a plate reader (BMG Labtech, CLARIOstar Plus) to […], and was measured after shaking for 3 minutes in a plate reader before measurement.
In Table 3, Activity represents IC50 value of each Exemplary Compound treatment group to H526 cell line (A: <30 nM, B: <50 nM, C: <100 nM, D: <200 nM, E: <400 nM).

PLK1 = target: T1, PLK1 (Homo sapiens, UniProt P53350); test: Luciferase assay for PLK1 in HeLa LgBit (Plk1-HiBit KI) cell line; format: cell-based; settings: 300 nM compound, luminescence after 9 hours
T1 construct: endogenous in cells; host or cells: HeLa LgBit (Plk1-HiBit KI): HeLa stably expressing LgBit, with a CRISPR/Cas9 knock-in of HiBit at the endogenous PLK1 locus
Method in brief: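 Luminescence, followed in real time after adding compound at 300 nM and Endurazine substrate, is reported relative to DMSO-treated wells. Cells are a HeLa LgBit line with a Plk1-HiBit knock-in, synchronized by 2 mM thymidine for 24 h, released, and cultured 18 h before treatment.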

T1 sequence (P53350 whole entry): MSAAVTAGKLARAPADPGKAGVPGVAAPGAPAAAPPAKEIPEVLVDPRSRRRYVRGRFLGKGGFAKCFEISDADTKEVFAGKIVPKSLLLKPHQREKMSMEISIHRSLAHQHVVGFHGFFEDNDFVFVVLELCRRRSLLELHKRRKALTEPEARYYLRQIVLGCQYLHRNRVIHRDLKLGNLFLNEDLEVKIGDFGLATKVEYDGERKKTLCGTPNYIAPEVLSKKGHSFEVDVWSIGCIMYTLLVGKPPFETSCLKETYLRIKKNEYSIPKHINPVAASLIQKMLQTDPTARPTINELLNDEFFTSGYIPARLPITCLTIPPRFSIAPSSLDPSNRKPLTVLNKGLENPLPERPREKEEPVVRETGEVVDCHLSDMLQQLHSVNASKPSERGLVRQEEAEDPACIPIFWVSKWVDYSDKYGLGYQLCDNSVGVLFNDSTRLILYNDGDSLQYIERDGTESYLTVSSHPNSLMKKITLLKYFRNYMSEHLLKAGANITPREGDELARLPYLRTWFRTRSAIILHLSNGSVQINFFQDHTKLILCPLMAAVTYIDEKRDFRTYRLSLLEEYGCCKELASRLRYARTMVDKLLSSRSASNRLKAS

Row | Structure (SMILES) | IC50 (NCI-H526 cell line) [nM] | Activity: ratio of the luminescense value of each Exemplary Compound treatment group to DMSO treatment group (PLK1)
1 | COc1cc(C(=O)NC2CCN(CCOc3cccc4c3C(=O)N(C3CCC(=O)NC3=O)C4=O)CC2)c(F)cc1Nc1ncc2c(n1)N(C1CCCC1)CC(F)(F)C(=O)N2C (stereo not shown) [Compound 2, 4-((9-cyclopentyl-7,7-difluoro-5-methyl-6-oxo-6,7,8,9-tetrahydro-5H-pyrimido[4,5-b][1,4]diazepin-2-yl)amino)-N-(1-(2-((2-(2,6-dioxopiperidin-3-yl)-1,3-dioxoisoindolin-4-yl)oxy)ethyl)piperidin-4-yl)-2-fluoro-5-methoxybenzamide] | < 200 | ++ (++<0.6)
2 | COc1cc(C(=O)NC2CCN(CCOc3cccc4c3C(=O)N(C3CCC(=O)NC3=O)C4=O)CC2)c(Cl)cc1Nc1ncc2c(n1)N(C1CCCC1)CC(F)(F)C(=O)N2C (stereo not shown) [Compound 6, 2-chloro-4-((9-cyclopentyl-7,7-difluoro-5-methyl-6-oxo-6,7,8,9-tetrahydro-5H-pyrimido[4,5-b][1,4]diazepin-2-yl)amino)-N-(1-(2-((2-(2,6-dioxopiperidin-3-yl)-1,3-dioxoisoindolin-4-yl)oxy)ethyl)piperidin-4-yl)-5-methoxybenzamide] | < 400 | +++ (+++: <0.3)
3 | COc1cc(C(=O)NCCCOCCCOCCOc2cccc3c2CN(C2CCC(=O)NC2=O)C3=O)ccc1Nc1ncc2c(n1)N(C1CCCC1)CC(F)(F)C(=O)N2C (stereo not shown) [Compound 20, 4-((9-cyclopentyl-7,7-difluoro-5-methyl-6-oxo-6,7,8,9-tetrahydro-5H-pyrimido[4,5-b][1,4]diazepin-2-yl)amino)-N-(3-(3-(2-((2-(2,6-dioxopiperidin-3-yl)-1-oxoisoindolin-4-yl)oxy)ethoxy)propoxy)propyl)-3-methoxybenzamide] | < 200 | ++ (++<0.6)
4 | COc1cc(C(=O)NN2CCN(C(=O)CCCNc3cccc4c3C(=O)N(C3CCC(=O)NC3=O)C4=O)CC2)c(F)cc1Nc1ncc2c(n1)N(C1CCCC1)CC(F)(F)C(=O)N2C (stereo not shown) [Compound 29, 4-((9-cyclopentyl-7,7-difluoro-5-methyl-6-oxo-6,7,8,9-tetrahydro-5H-pyrimido[4,5-b][1,4]diazepin-2-yl)amino)-N-(4-(4-((2-(2,6-dioxopiperidin-3-yl)-1,3-dioxoisoindolin-4-yl)amino)butanoyl)piperazin-1-yl)-2-fluoro-5-methoxybenzamide] | < 30 | ++ (++<0.6)
5 | COc1cc(C(=O)NC2CCN(C(=O)CCCNc3cccc4c3C(=O)N(C3CCC(=O)NC3=O)C4=O)CC2)c(F)cc1Nc1ncc2c(n1)N(C(C)C)CC(F)(F)C(=O)N2C (stereo not shown) [Compound 33, 4-((7,7-difluoro-9-isopropyl-5-methyl-6-oxo-6,7,8,9-tetrahydro-5H-pyrimido[4,5-b][1,4]diazepin-2-yl)amino)-N-(1-(4-((2-(2,6-dioxopiperidin-3-yl)-1,3-dioxoisoindolin-4-yl)amino)butanoyl)piperidin-4-yl)-2-fluoro-5-methoxybenzamide] | < 200 | ++ (++<0.6)
6 | COc1cc(C(=O)NN2CCN(C3CN(c4cccc5c4C(=O)N(C4CCC(=O)NC4=O)C5=O)C3)CC2)ccc1Nc1ncc2c(n1)N(C1CCCC1)CC(F)(F)C(=O)N2C (stereo not shown) [Compound 200, 4-((9-cyclopentyl-7,7-difluoro-5-methyl-6-oxo-6,7,8,9-tetrahydro-5H-pyrimido[4,5-b][1,4]diazepin-2-yl)amino)-N-(4-(1-(2-(2,6-dioxopiperidin-3-yl)-1,3-dioxoisoindolin-4-yl)azetidin-3-yl)piperazin-1-yl)-3-methoxybenzamide] | – | + (+<0.7)
7 | COc1cc(C(=O)NC2CCN(C(=O)CC3CN(c4cccc5c4C(=O)N(C4CCC(=O)NC4=O)C5=O)C3)CC2)c(F)cc1Nc1ncc2c(n1)N(C1CCCC1)CC(F)(F)C(=O)N2C (stereo not shown) [Compound 204, 4-((9-cyclopentyl-7,7-difluoro-5-methyl-6-oxo-6,7,8,9-tetrahydro-5H-pyrimido[4,5-b][1,4]diazepin-2-yl)amino)-N-(1-(2-(1-(2-(2,6-dioxopiperidin-3-yl)-1,3-dioxoisoindolin-4-yl)azetidin-3-yl)acetyl)piperidin-4-yl)-2-fluoro-5-methoxybenzamide] | – | + (+<0.7)
8 | COc1cc(C(=O)NC2CCN(C(=O)[C@@H]3C[C@H](Nc4cccc5c4C(=O)N(C4CCC(=O)NC4=O)C5=O)CN3)CC2)c(F)cc1Nc1ncc2c(n1)N(C1CCCC1)CC(F)(F)C(=O)N2C (stereo partly drawn) [Compound 206, 4-((9-cyclopentyl-7,7-difluoro-5-methyl-6-oxo-6,7,8,9-tetrahydro-5H-pyrimido[4,5-b][1,4]diazepin-2-yl)amino)-N-(1-((2S,4S)-4-((2-(2,6-dioxopiperidin-3-yl)-1,3-dioxoisoindolin-4-yl)amino)pyrrolidine-2-carbonyl)piperidin-4-yl)-2-fluoro-5-methoxybenzamide] | – | + (+<0.7)
9 | COc1cc(C(=O)NN2CCC(N3CC4(CCN(c5ccc6c(c5)C(=O)N(C5CCC(=O)NC5=O)C6=O)CC4)C3)CC2)ccc1Nc1ncc2c(n1)N(C(C)C)CC(F)(F)C(=O)N2C (stereo not shown) [Compound 214, 4-((7,7-difluoro-9-isopropyl-5-methyl-6-oxo-6,7,8,9-tetrahydro-5H-pyrimido[4,5-b][1,4]diazepin-2-yl)amino)-N-(4-(7-(2-(2,6-dioxopiperidin-3-yl)-1,3-dioxoisoindolin-5-yl)-2,7-diazaspiro[3.5]nonan-2-yl)piperidin-1-yl)-3-methoxybenzamide] | – | + (+<0.7)
10 | COc1cc(C(=O)NCCOCCNc2cccc3c2C(=O)N(C2CCC(=O)NC2=O)C3=O)c(N2CCN(C)CC2)cc1Nc1ncc2c(n1)N(C1CCCC1)CC(F)(F)C(=O)N2C (stereo not shown) [Compound 221, 4-((9-cyclopentyl-7,7-difluoro-5-methyl-6-oxo-6,7,8,9-tetrahydro-5H-pyrimido[4,5-b][1,4]diazepin-2-yl)amino)-N-(2-(2-((2-(2,6-dioxopiperidin-3-yl)-1,3-dioxoisoindolin-4-yl)amino)ethoxy)ethyl)-5-methoxy-2-(4-methylpiperazin-1-yl)benzamide] | – | + (+<0.7)
11 | COc1cc(C(=O)NCCOCCOCCNc2cccc3c2C(=O)N(C2CCC(=O)NC2=O)C3=O)c(N2CCN(C)CC2)cc1Nc1ncc2c(n1)N(C1CCCC1)CC(F)(F)C(=O)N2C (stereo not shown) [Compound 222, 4-((9-cyclopentyl-7,7-difluoro-5-methyl-6-oxo-6,7,8,9-tetrahydro-5H-pyrimido[4,5-b][1,4]diazepin-2-yl)amino)-N-(2-(2-(2-((2-(2,6-dioxopiperidin-3-yl)-1,3-dioxoisoindolin-4-yl)amino)ethoxy)ethoxy)ethyl)-5-methoxy-2-(4-methylpiperazin-1-yl)benzamide] | – | ++ (++<0.6)
12 | COc1cc(C(=O)NCCOCCOCCOCCNc2cccc3c2C(=O)N(C2CCC(=O)NC2=O)C3=O)c(N2CCN(C)CC2)cc1Nc1ncc2c(n1)N(C1CCCC1)CC(F)(F)C(=O)N2C (stereo not shown) [Compound 223, 4-((9-cyclopentyl-7,7-difluoro-5-methyl-6-oxo-6,7,8,9-tetrahydro-5H-pyrimido[4,5-b][1,4]diazepin-2-yl)amino)-N-(2-(2-(2-(2-((2-(2,6-dioxopiperidin-3-yl)-1,3-dioxoisoindolin-4-yl)amino)ethoxy)ethoxy)ethoxy)ethyl)-5-methoxy-2-(4-methylpiperazin-1-yl)benzamide] | – | ++ (++<0.6)
13 | COc1cc(C(=O)NCCOCCOCCOCCOCCNc2cccc3c2C(=O)N(C2CCC(=O)NC2=O)C3=O)c(N2CCN(C)CC2)cc1Nc1ncc2c(n1)N(C1CCCC1)CC(F)(F)C(=O)N2C (stereo not shown) [Compound 224, 4-((9-cyclopentyl-7,7-difluoro-5-methyl-6-oxo-6,7,8,9-tetrahydro-5H-pyrimido[4,5-b][1,4]diazepin-2-yl)amino)-N-(14-((2-(2,6-dioxopiperidin-3-yl)-1,3-dioxoisoindolin-4-yl)amino)-3,6,9,12-tetraoxatetradecyl)-5-methoxy-2-(4-methylpiperazin-1-yl)benzamide] | – | ++ (++<0.6)
14 | COc1cc(C(=O)NCCOCCOCCOCCOCCOCCNc2cccc3c2C(=O)N(C2CCC(=O)NC2=O)C3=O)c(N2CCN(C)CC2)cc1Nc1ncc2c(n1)N(C1CCCC1)CC(F)(F)C(=O)N2C (stereo not shown) [Compound 225, 4-((9-cyclopentyl-7,7-difluoro-5-methyl-6-oxo-6,7,8,9-tetrahydro-5H-pyrimido[4,5-b][1,4]diazepin-2-yl)amino)-N-(17-((2-(2,6-dioxopiperidin-3-yl)-1,3-dioxoisoindolin-4-yl)amino)-3,6,9,12,15-pentaoxaheptadecyl)-5-methoxy-2-(4-methylpiperazin-1-yl)benzamide] | – | ++ (++<0.6)
